The test system of data set [1] is prolonged bleeding time caused by heparin sodium. In words: Tail-cut bleeding time in mice, prolonged by heparin sodium. The format is in vivo, ICR mice. As to conditions: group P, 200 mg/kg i.p. once a day 5 days; heparin sodium 150 U/kg i.v. The text has this: 72 ICR mice aged 5-6 weeks, weighing 19-21 g, and half male and half female were selected. The mice were quarantined for 7 days after entering a laboratory and healthy mice were selected as test animals. The mice were weighed on first and last days of quarantine. According to the body weight on the last day of the quarantine, the male and female animals were divided into six groups by a simplified random method, namely, a normal group (C), a model group (V), low-, medium- and high-dose icaritin groups (2, 6, and 18 mg/kg, L, M, H) and a positive control drug group (200 mg/kg of etamsylate, P).
(§1) After 15 min of the modeling, the tails of the mice were cut and bleeding time of each mouse was measured.

Data set [2] relates to prolonged bleeding time caused by aspirin. In words: Tail-cut bleeding time in mice, prolonged by aspirin. The format is in vivo, ICR mice. As to conditions: group P, 200 mg/kg i.p. once a day 5 days; aspirin 20 mg/kg i.g. The procedure:
According to the body weight on the last day of the quarantine, the male and female animals were divided into six groups by a simplified random method, namely, a normal group (C), a model group (V), icaritin low-, medium- and high-dose groups (2, 6, and 18 mg/kg, L, M, H) and a positive control drug group (200 mg/kg of etamsylate, P).
as §1

The conditions of data set [3]: mouse, in vivo, ip, 200 mg/kg.
Protocol: (§7) After the grouping, the mice in the normal group and the model group were intragastrically administrated with 10 ml/kg of an icaritin solvent which was prepared by adding 12 g of hypromellose E5 and 0.1 g of sodium lauryl sulfate into 1 L of water. […] One hour after the last pre-administration, the mice in the model group and each administration group were injected with 150 U/kg of a heparin sodium injection through a tail vein to establish a model, and the mice in the normal group were injected with 10 ml/kg of a sodium chloride injection through a tail vein.
(§8) After the bleeding time was detected, the mice were anesthetized with sodium pentobarbital, blood was collected from an abdominal cardinal vein, and indicators of blood routine examination and four coagulation indicators (prothrombin time, thromboplastin time, thrombin time, and fibrinogen) were detected.
The conditions of data set [4]: mouse, in vivo, ip, 200 mg/kg. The source holds these as a separate data set.
Protocol: as §7, §8
In data set [5] the test system is hemorrhagic transformation model induced by clopidogrel combined with cerebral ischemia-reperfusion. In words: Hemorrhagic transformation after cerebral ischemia-reperfusion (MCAO) caused by clopidogrel, bleeding rate. Type of data set: in vivo, ICR mice. To be noted: 12 mg/kg i.g. Day 1-3 with clopidogrel 15 mg/kg; 24 h after MCAO; of 8 (icaritin) or 7 (icariin) animals. The procedure: (§2) 5-week-old ICR male mice were fed to 6-week-old and divided into a control group, a model group, an icaritin-3 mg/kg group, an icaritin-6 mg/kg group, an icaritin-12 mg/kg group, and an icariin-12 mg/kg group according to body weight. From day 1 to day 3 after the grouping, the mice in each icaritin group were separately intragastrically administrated with 3, 6, and 12 mg/kg of icaritin and the mice in the icariin group was intragastrically administrated with 12 mg/kg of icariin once a day, and the mice in other groups were intragastrically administrated with a corresponding vehicle; and except the control group, the mice in other groups were intragastrically administrated with aspirin (100 mg/kg) or clopidogrel (15 mg/kg) once a day at a volume of 10 mL/kg.
(§3) On day 3, 10 min after the administration, the mice were anesthetized by intraperitoneal injection of 70 mg/kg of pentobarbital sodium and subjected to a cerebral ischemia-reperfusion (middle cerebral artery occlusion, MCAO) surgery with ischemia for 1 h and reperfusion for 23 h.
(§4) 24 h after the surgery was an end point of the experiment.
(§5) Bleeding rate: the mice were anesthetized by intraperitoneal injection of 70 mg/kg of pentobarbital sodium, a brain tissue was taken out, cerebral hemorrhage was recorded and a bleeding rate of the mice in each group was calculated. Cerebral hemorrhage rate %=number of animals with cerebral hemorrhage/number of surviving animals in each group×100.

Data set [6] has as its system hemorrhagic transformation model induced by aspirin combined with cerebral ischemia-reperfusion. In words: Hemorrhagic transformation after cerebral ischemia-reperfusion (MCAO) caused by aspirin, bleeding rate. The format is in vivo, ICR mice. To be noted: 12 mg/kg i.g. Day 1-3 with aspirin 100 mg/kg; 24 h after MCAO; of 9 (icaritin) or 8 (icariin) animals. The procedure:
as §2, §3, §4, §5

In the next data set the test system is gastric injury. More on the design: species or system SD rats. As to conditions: rat, in vivo. The procedure: (§6) An animal model of thromboembolic cerebral ischemia was prepared by blocking a middle cerebral artery with an autologous thrombus combined with a suture occlusion method, and a catheter was indwelled.
The left lung and gastric antrum were excised, fixed with 100 g/L of a neutral formaldehyde solution, and dehydrated conventionally to be transparent, the dehydrated tissue was dipped with wax and embedded, the embedded tissue was sectioned and stained, and pathological changes were observed under a light microscope. A damage degree was graded according to a degree of tissue congestion, edema and cell degeneration from mild to severe: grade I: 0%-25%, grade II: 26%-50%, grade III: 51%-75%, and grade IV: >75% (bleeding was observed under the microscope).

Data set [7] relates to gastric bleeding caused by thrombolytic drug. Also on record: species or system SD rats. To be noted: rat, in vivo. As for the experimental part: as §6
24 h after the arterial administration, the rats in each group were anesthetized and dissected. The number of bleeding cases was observed under naked eyes and a light microscope, and a ratio of the number of bleeding cases to the total number was calculated.

With `O=S(=O)(O)c1cc(O)ccc1O` [Etamsylate, reference compound], the Bleeding time in data set [1] is given as 21.4 ± 6.7^$ min. For the same molecule, the Bleeding time in data set [2] was 26.4 ± 6.4^$ min. In data set [3], this molecule registered a Fibrinogen of 1.86 ± 0.40 g/L, a Prothrombin time of 10.03 ± 1.24 s, a Thrombin time of 24.34 ± 1.37 s and a Thromboplastin time of 22.78 ± 2.34 s. Also, in data set [4], the Number of erythrocytes is 6.998 ± 0.871 10^12/L, the Number of leukocytes is given as 1.903 ± 0.221 10^9/L and the Number of platelets is reported as 1097 ± 114 10^9/L.

Turning to `COc1ccc(-c2oc3c(CC=C(C)C)c(O[C@@H]4O[C@H](CO)[C@@H](O)[C@H](O)[C@H]4O)cc(O)c3c(=O)c2O[C@@H]2O[C@@H](C)[C@H](O)[C@@H](O)[C@H]2O)cc1` [Icariin, reference compound], the “Number of animals with cerebral hemorrhage” value in data set [5] is 5; in data set [6], 6.

With Urokinase, in the data set on gastric injury, the “Incidence of gastric injury” value is given as 100 ^$ $ %; the “Number of animals, gastric damage grade I” value is recorded as 1; the “Number of animals, gastric damage grade II” value is listed as 2; the “Number of animals, gastric damage grade III” value was determined as 2. For the same molecule, in the data set on gastric injury, the “Number of animals, gastric damage grade IV” value was 11 and the “Total number of animals with gastric injury” value is listed as 16. In data set [7], the Bleeding rate is on record as 68.8^$ $ % and the “Number of bleeding animals” value was 11.

These data come from US12558343B2, “Medical use of icaritin” (Lunan Pharmaceutical Group Corporation, priority 2020, dated 2026).
